The source of these data is patent US10399940B2, “Substituted pyrrolidines and methods of use” (AbbVie S.à.r.l., priority 2016, dated 2019).

Each structure is given as a SMILES string. Like-named read-outs stand apart in the source and are kept apart here.

The experiment concerns the target T1, F508delCFTR (Homo sapiens, UniProt P13569, DEL508-508).
T1 construct: expressed in transfected cells; host or cells: CFBE41o- (human lung derived epithelial cell line), doxycycline-inducible expression
Nature of the experiment: Cell Surface Expression-Horse Radish Peroxidase (CSE-HRP) assay. The class given is cell-based. Particulars: CFBE41o-F508delCFTR-HRP cells; for Maximum % activity (with co-corrector): with co-corrector (2 μM); for Maximum % activity (with co-corrector) / Maximum % activity (without co-corrector): normalized to on-plate positive control, highest concentration 20 μM. The gist of the method: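 Surface F508delCFTR-HRP was read by luminol luminescence after 18–24 h compound exposure at 33 °C, without or with 2 μM co-corrector. Doses were eight 3-fold steps from 20 μM, in doxycycline-induced (0.5 μg/mL, 72 h) CFBE41o- cells. % activity was scaled to the on-plate 2 μM positive control minus DMSO; EC50 came from a variable-slope sigmoid fit.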

Where [1] appears, read: test compound without co-corrector, 18-24 hours at 33° C., read-out: EC50 (without co-corrector).
Setting [2] is: with co-corrector (2 μM of 3-[(2R,4R)-4-({[1-(2,2-difluoro-1,3-benzodioxol-5-yl)cyclopropyl]carbonyl}amino)-7-methoxy-3,4-dihydro-2H-chromen-2-yl]benzoic acid), read-out: EC50 (with co-corrector).

In general, EC50 refers to the concentration needed to bring the measured effect to its halfway point.

T1 sequence (P13569 with tags, fused parts or gaps DEL508-508): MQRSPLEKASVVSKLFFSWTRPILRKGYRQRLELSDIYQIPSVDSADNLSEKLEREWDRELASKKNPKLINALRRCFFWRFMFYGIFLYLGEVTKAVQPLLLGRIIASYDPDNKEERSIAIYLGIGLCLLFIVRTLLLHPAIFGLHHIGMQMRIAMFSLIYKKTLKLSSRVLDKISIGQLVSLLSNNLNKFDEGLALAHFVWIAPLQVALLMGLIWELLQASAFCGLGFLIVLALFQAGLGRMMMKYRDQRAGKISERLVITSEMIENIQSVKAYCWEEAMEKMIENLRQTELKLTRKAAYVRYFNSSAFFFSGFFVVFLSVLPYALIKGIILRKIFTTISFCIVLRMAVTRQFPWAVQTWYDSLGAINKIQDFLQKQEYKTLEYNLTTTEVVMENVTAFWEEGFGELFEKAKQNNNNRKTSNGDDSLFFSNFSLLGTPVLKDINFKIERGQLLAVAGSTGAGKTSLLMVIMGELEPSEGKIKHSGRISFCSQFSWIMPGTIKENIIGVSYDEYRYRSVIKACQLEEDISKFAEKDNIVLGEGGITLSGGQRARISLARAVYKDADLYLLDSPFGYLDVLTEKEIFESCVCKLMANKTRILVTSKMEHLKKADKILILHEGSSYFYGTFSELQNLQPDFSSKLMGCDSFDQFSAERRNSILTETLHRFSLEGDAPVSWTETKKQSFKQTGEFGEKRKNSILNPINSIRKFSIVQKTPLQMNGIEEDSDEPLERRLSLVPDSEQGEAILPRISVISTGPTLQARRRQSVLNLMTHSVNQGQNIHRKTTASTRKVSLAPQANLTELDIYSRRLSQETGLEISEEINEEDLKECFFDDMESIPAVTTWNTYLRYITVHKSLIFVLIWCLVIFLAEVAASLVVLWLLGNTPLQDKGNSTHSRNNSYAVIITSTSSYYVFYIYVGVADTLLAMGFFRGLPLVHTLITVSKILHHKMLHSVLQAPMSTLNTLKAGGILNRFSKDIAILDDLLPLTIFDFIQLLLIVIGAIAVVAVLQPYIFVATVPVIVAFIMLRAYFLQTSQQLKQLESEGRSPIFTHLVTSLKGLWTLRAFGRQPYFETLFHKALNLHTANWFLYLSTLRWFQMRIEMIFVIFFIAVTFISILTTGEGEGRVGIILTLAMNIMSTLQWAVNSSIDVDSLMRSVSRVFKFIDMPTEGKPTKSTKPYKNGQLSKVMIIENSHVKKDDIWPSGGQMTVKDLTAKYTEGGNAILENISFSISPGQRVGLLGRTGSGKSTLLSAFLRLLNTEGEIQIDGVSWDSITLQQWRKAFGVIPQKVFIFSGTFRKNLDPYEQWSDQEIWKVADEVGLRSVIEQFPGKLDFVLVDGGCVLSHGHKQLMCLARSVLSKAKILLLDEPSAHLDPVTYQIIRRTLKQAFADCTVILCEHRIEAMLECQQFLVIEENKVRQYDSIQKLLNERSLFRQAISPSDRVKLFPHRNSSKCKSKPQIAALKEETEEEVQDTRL

For the molecule `COc1ccc(-c2ccccc2[C@H]2[C@@H](OCc3cc(C(F)(F)F)cnc3OC)[C@H](C(C)(C)C)[C@@H](C(=O)O)N2C(=O)[C@@H]2CCCCO2)cn1` [Example 205, (2S,3R,4S,5S)-3-tert-butyl-5-[2-(6-methoxypyridin-3-yl)phenyl]-4-{[2-methoxy-5-(trifluoromethyl)pyridin-3-yl]methoxy}-1-[(2S)-oxane-2-carbonyl]pyrrolidine-2-carboxylic acid], the “Maximum % activity (with co-corrector)” value was “+++ (≥350)”; the “Maximum % activity (without co-corrector)” value was “++ (≥100 and <200)”. In addition, the EC50 under setting [1] is 1000 to 10000 nM. Moreover, the 50% effective concentration (EC50) under setting [2] lay within 1000 to 10000 nM.

As for `COc1ncc(C(F)(F)F)cc1CO[C@H]1[C@H](C(C)(C)C)[C@@H](C(=O)O)N(C(=O)[C@@H]2CCCCO2)[C@H]1c1ccccc1-c1ccc(OC(F)(F)F)cc1` [Example 206, (2S,3R,4S,5S)-3-tert-butyl-4-{[2-methoxy-5-(trifluoromethyl)pyridin-3-yl]methoxy}-1-[(2S)-oxane-2-carbonyl]-5-[4′-(trifluoromethoxy) [1,1′-biphenyl]-2-yl]pyrrolidine-2-carboxylic acid], the “Maximum % activity (with co-corrector)” value is “+++ (≥350)” and the “Maximum % activity (without co-corrector)” value is given as “+++ (≥200)”. The EC50 under setting [1] was in the range of 1000 to 10000 nM. In addition, the EC50 under setting [2] was in the range of 1000 to 10000 nM.

Regarding `COc1ncc(C(F)(F)F)cc1CO[C@H]1[C@H](C(C)(C)C)[C@@H](C(=O)O)N(C(=O)[C@@H]2CCCCO2)[C@H]1c1ccccc1-c1ccc(C#N)cc1` [Example 207, (2S,3R,4S,5S)-3-tert-butyl-5-(4′-cyano[1,1′-biphenyl]-2-yl)-4-{[2-methoxy-5-(trifluoromethyl)pyridin-3-yl]methoxy}-1-[(2S)-oxane-2-carbonyl]pyrrolidine-2-carboxylic acid], the “Maximum % activity (with co-corrector)” value is listed as “+++ (≥350)”; the “Maximum % activity (without co-corrector)” value was “++ (≥100 and <200)”. In addition, the concentration for a half-maximal effect (EC50) under setting [1] fell in the range of 1000 to 10000 nM. Besides, the EC50 under setting [2] was in the range of 1000 to 10000 nM.

On to `COc1ncc(C(F)(F)F)cc1CO[C@H]1[C@H](C(C)(C)C)[C@@H](C(=O)O)N(C(=O)[C@@H]2CCCCO2)[C@H]1c1ccccc1-c1ccc(C(F)(F)F)nc1` [Example 208, (2S,3R,4S,5S)-3-tert-butyl-4-{[2-methoxy-5-(trifluoromethyl)pyridin-3-yl]methoxy}-1-[(2S)-oxane-2-carbonyl]-5-{2-[6-(trifluoromethyl)pyridin-3-yl]phenyl}pyrrolidine-2-carboxylic acid], for which the “Maximum % activity (with co-corrector)” value is listed as “+++ (≥350)” and the “Maximum % activity (without co-corrector)” value is on record as “+++ (≥200)”. Moreover, the 50% effective concentration (EC50) under setting [1] is 1000 to 10000 nM. The EC50 under setting [2] fell in the range of 1000 to 10000 nM.

In the case of `CCOc1cncc(-c2ccccc2[C@H]2[C@@H](OCc3cc(C(F)(F)F)cnc3OC)[C@H](C(C)(C)C)[C@@H](C(=O)O)N2C(=O)[C@@H]2CCCCO2)c1` [Example 209, (2S,3R,4S,5S)-3-tert-butyl-5-[2-(5-ethoxypyridin-3-yl)phenyl]-4-{[2-methoxy-5-(trifluoromethyl)pyridin-3-yl]methoxy}-1-[(2S)-oxane-2-carbonyl]pyrrolidine-2-carboxylic acid], the “Maximum % activity (with co-corrector)” value is “+++ (≥350)”; the “Maximum % activity (without co-corrector)” value was “++ (≥100 and <200)”. The half-maximal effective concentration (EC50) under setting [1] fell in the range of 1000 to 10000 nM. In addition, the EC50 under setting [2] fell in the range of 1000 to 10000 nM.

With `COc1ccc(C(C)(C)C)cc1CO[C@H]1[C@H](C(C)(C)C)[C@@H](C(=O)O)N(C(=O)[C@@H]2CCCCO2)[C@H]1c1cccc2ccccc12` [Example 211, (2S,3R,4S,5S)-3-tert-butyl-4-[(5-tert-butyl-2-methoxyphenyl)methoxy]-5-(naphthalen-1-yl)-1-[(2S)-oxane-2-carbonyl]pyrrolidine-2-carboxylic acid], the “Maximum % activity (with co-corrector)” value is on record as “+++ (≥350)” and the “Maximum % activity (without co-corrector)” value is listed as “+++ (≥200)”. The EC50 under setting [1] fell in the range of 1000 to 10000 nM. Further, the EC50 under setting [2] was less than 1000 nM.

In the case of `COc1ncc(C(F)(F)F)cc1CO[C@H]1[C@H](C(C)(C)C)[C@@H](C(=O)O)N(C(=O)[C@@H]2CCCCO2)[C@H]1c1cccc2ccoc12` [Example 212, (2S,3R,4S,5S)-5-(1-benzofuran-7-yl)-3-tert-butyl-4-{[2-methoxy-5-(trifluoromethyl)pyridin-3-yl]methoxy}-1-[(2S)-oxane-2-carbonyl]pyrrolidine-2-carboxylic acid], the “Maximum % activity (with co-corrector)” value is “+++ (≥350)”; the “Maximum % activity (without co-corrector)” value is “++ (≥100 and <200)”. Moreover, the EC50 under setting [1] was 1000 to 10000 nM. For the same molecule, the EC50 under setting [2] lay within 1000 to 10000 nM.

With `COc1ncc(C(F)(F)F)cc1CO[C@H]1[C@H](C(C)(C)C)[C@@H](C(=O)O)N(C(=O)[C@@H]2CCCCO2)[C@H]1c1ccccc1CC(C)C` [Example 213, (2S,3R,4S,5S)-3-tert-butyl-4-{[2-methoxy-5-(trifluoromethyl)pyridin-3-yl]methoxy}-5-[2-(2-methylpropyl)phenyl]-1-[(2S)-oxane-2-carbonyl]pyrrolidine-2-carboxylic acid], the “Maximum % activity (with co-corrector)” value was “+++ (≥350)” and the “Maximum % activity (without co-corrector)” value was “+++ (≥200)”. Under setting [1], the 50% effective concentration (EC50) lay in the range of 1000 to 10000 nM. Also, under setting [2], the EC50 is less than 1000 nM.

Consider `COc1cccc(S(=O)(=O)N2[C@H](C(=O)O)[C@@H](C(C)(C)C)[C@H](OCc3cc(C4CCC4)cnc3OC)[C@@H]2c2ccccc2C2CC2)n1` [Example 214, (2S,3R,4S,5S)-3-tert-butyl-4-[(5-cyclobutyl-2-methoxypyridin-3-yl)methoxy]-5-(2-cyclopropylphenyl)-1-(6-methoxypyridine-2-sulfonyl)pyrrolidine-2-carboxylic acid], for which the “Maximum % activity (with co-corrector)” value is “++ (≥150 and <350)”; the “Maximum % activity (without co-corrector)” value is reported as “+ (<100)”. Besides, under setting [1], the EC50 was in the range of 1000 to 10000 nM. Also, the concentration for a half-maximal effect (EC50) under setting [2] fell in the range of 1000 to 10000 nM.

For `COc1ccc(C2(C)CCC2)cc1CO[C@H]1[C@H](C(C)(C)C)[C@@H](C(=O)O)N(C(=O)[C@@H]2CCCCO2)[C@H]1c1ccccc1C` [Example 215, (2S,3R,4S,5S)-3-tert-butyl-4-{[2-methoxy-5-(1-methylcyclobutyl)phenyl]methoxy}-5-(2-methylphenyl)-1-[(2S)-oxane-2-carbonyl]pyrrolidine-2-carboxylic acid], the “Maximum % activity (with co-corrector)” value is recorded as “+++ (≥350)” and the “Maximum % activity (without co-corrector)” value was “+++ (≥200)”. For the same molecule, the EC50 under setting [1] was less than 1000 nM. Also, the EC50 under setting [2] is less than 1000 nM.

In the case of `COc1ncc(C(F)(F)F)cc1CO[C@H]1[C@H](C(C)(C)C)[C@@H](C(=O)O)N(C(=O)[C@@H]2CCCCO2)[C@H]1c1cccc2c1OCC2` [Example 216, (2S,3R,4S,5S)-3-tert-butyl-5-(2,3-dihydro-1-benzofuran-7-yl)-4-{[2-methoxy-5-(trifluoromethyl)pyridin-3-yl]methoxy}-1-[(2S)-oxane-2-carbonyl]pyrrolidine-2-carboxylic acid], the “Maximum % activity (with co-corrector)” value is given as “+++ (≥350)” and the “Maximum % activity (without co-corrector)” value is given as “+ (<100)”. Besides, the EC50 under setting [1] lay within 1000 to 10000 nM. The EC50 under setting [2] is less than 1000 nM.

For the molecule `COc1ncc(C2CC2)cc1CO[C@H]1[C@H](C(C)(C)C)[C@@H](C(=O)O)N(C(=O)[C@@H]2CCCCO2)[C@H]1c1ccccc1C` [Example 217, (2S,3R,4S,5S)-3-tert-butyl-4-[(5-cyclopropyl-2-methoxypyridin-3-yl)methoxy]-5-(2-methylphenyl)-1-[(2S)-oxane-2-carbonyl]pyrrolidine-2-carboxylic acid], the “Maximum % activity (with co-corrector)” value is given as “+++ (≥350)” and the “Maximum % activity (without co-corrector)” value was “+++ (≥200)”. Also, the concentration giving a half-maximal response (EC50) under setting [1] is 1000 to 10000 nM. Besides, the concentration giving a half-maximal response (EC50) under setting [2] was less than 1000 nM.

Turning to `COc1ncc(C2CCC2)cc1CO[C@H]1[C@H](C(C)(C)C)[C@@H](C(=O)O)N(C(=O)[C@@H]2CCCCO2)[C@H]1c1cccc2c1CCCC2` [Example 218, (2S,3R,4S,5S)-3-tert-butyl-4-[(5-cyclobutyl-2-methoxypyridin-3-yl)methoxy]-1-[(2S)-oxane-2-carbonyl]-5-(5,6,7,8-tetrahydronaphthalen-1-yl)pyrrolidine-2-carboxylic acid], the “Maximum % activity (with co-corrector)” value is on record as “+++ (≥350)” and the “Maximum % activity (without co-corrector)” value is reported as “+++ (≥200)”. Further, under setting [1], the EC50 is less than 1000 nM. The EC50 under setting [2] is less than 1000 nM.

`COc1ncc(C(F)(F)F)cc1CO[C@H]1[C@H](C(C)(C)C)[C@@H](C(=O)O)N(C(=O)[C@@H]2CCCCO2)[C@H]1c1cccc2c1CCCC2` [Example 219, (2S,3R,4S,5S)-3-tert-butyl-4-{[2-methoxy-5-(trifluoromethyl)pyridin-3-yl]methoxy}-1-[(2S)-oxane-2-carbonyl]-5-(5,6,7,8-tetrahydronaphthalen-1-yl)pyrrolidine-2-carboxylic acid]: the “Maximum % activity (with co-corrector)” value is given as “+++ (≥350)” and the “Maximum % activity (without co-corrector)” value is reported as “+++ (≥200)”. The 50% effective concentration (EC50) under setting [1] was less than 1000 nM. Besides, the 50% effective concentration (EC50) under setting [2] was less than 1000 nM.

`COc1nc2cc(C)ccc2cc1CO[C@H]1[C@H](C(C)(C)C)[C@@H](C(=O)O)N(C(=O)[C@@H]2CCCCO2)[C@H]1c1ccccc1C` [Example 220, (2S,3R,4S,5S)-3-tert-butyl-4-[(2-methoxy-7-methylquinolin-3-yl)methoxy]-5-(2-methylphenyl)-1-[(2S)-oxane-2-carbonyl]pyrrolidine-2-carboxylic acid]: the “Maximum % activity (with co-corrector)” value was “+++ (≥350)”; the “Maximum % activity (without co-corrector)” value was “++ (≥100 and <200)”. Under setting [1], the 50% effective concentration (EC50) fell in the range of 1000 to 10000 nM. In addition, the EC50 under setting [2] is less than 1000 nM.
